# According to US12540117B2, “Aniline compound used as RORγ regulator” (SHANGHAI LITEDD CO., LTD., priority 2020, dated 2026):
# Assays:
# [1] = test system: Th17 cells differentiation and secretion of IL-17; experiment: Inhibition of Th17 differentiation in human PBMC (IL-17 ELISA); format: cell-based; conditions: for Emax: Homo sapiens, PBMC, maximum inhibition rate, maximum concentration 3 μM; for IC50: IL-17 secretion, human PBMC, 48 hours
# Protocol: Test procedure: the PBMC cells were first thawed and plated, and then stimulated with the stimulating factors (anti-hCD28: 5 μg/mL; rhTGF-β1: 5 ng/mL; rhIL-6: 20 ng/mL; rhIL-23: 10 ng/mL) to differentiate to Th17, while different concentrations of compounds were added, with the maximum concentration starting from 3 μM. After 48 hours, the supernatant was collected for IL-17 ELISA detection. The inhibition rates of the compounds to inhibit the secretion of IL-17 by Th17 cells were determined, as compared with the vehicle group, and the IC50 values were fitted with Graphad8.0.
# [2] = Pharmacokinetic (PK) assay in mice; format: in vivo, C57BL/6 mice; conditions: for AUC(0-t) / Cmax / half-life / Vd / bioavailability: C57BL/6, mouse, plasma; for Vd: read-out: Vss; for bioavailability: Po 5 mg/kg vs IV 1 mg/kg
# Protocol: The PK of each compound was determined as follows: 6 C57BL/6 mice (obtained from Shanghai Lingchang Biotechnology Co., Ltd.) were divided into two groups with 3 in each group. One group was administered intravenously at a dose of 1 mg/kg in the vehicle of 5% DMSO/95% (20% Captisol); the other group was administered by oral gavage at a dose of 5 mg/kg in the vehicle of 0.5% CMC-Na/0.5% Tween 80. Blood samples were collected from saphenous vein of lower leg in each group at 0, 0.083, 0.25, 0.5, 1, 2, 4, 6, 8 and 24 h after administration. Approximately 40 μL of the blood samples were collected into anticoagulant tubes containing EDTA-K2 Immediately after collection, the tubes were inverted at least 5 times to ensure uniform mixing, and then placed on ice. The blood samples collected at each time point were centrifuged at 4° C., 8000 rpm for 5 minutes to obtain plasma. Another 1.5 mL centrifuge tube was marked with the compound name, animal number, and time point, and the plasma was transferred to this tube. The plasma was stored at −80° C. until analysis.
# Compound concentrations in the plasma were determined by UPLC-MS/MS method, and the pharmacokinetic parameters were calculated from the obtained data by Phoenix WinNolin 6.4 pharmacokinetic software.
# [3] = Metabolic stability in human liver microsomes; format: in vitro ADME; conditions: for half-life: 0.5 mg protein/mL; for microsomal CLint: read-out: CLint(mic)
# Excerpt: (§1) According to standard methods for investigating in vitro metabolic stability in the art, e.g., the methods described in Kerns, Edward H. and Di Li (2008). Drug-like Properties: Concepts, Structure Design and Methods: from ADME to Toxicity Optimisation. San Diego: Academic Press; Di, Li et al., Optimisation of a Higher Throughput Microsomal Stability Screening Assay for Profiling Drug Discovery Candidates, J. Biomol. Screen. 2003, 8(4), 453, the liver microsomal metabolic stability test of the compounds of the present disclosure was carried out analogously as follows. The incubation system comprising 0.5 mg protein/mL microsomes, cofactors, and PBS, was pre-incubated at 37° C. for 3 min, and then added the substrate (i.e., the test compounds) to initiate the reaction. Samples were taken at 0, 1, 5, 10, 15, 20, 30 and 60 min from the start of the reaction, and an appropriate terminator was added to terminate the reaction. Sample treatment (n=3): appropriate samples were added respectively, vortexed and centrifuged at high speed. The supernatants were collected and detected for the substrate by HPLC-MS/MS. The peak area at the 0 mm was taken as 100%. The peak areas at other time points were converted to percentages of remaining. The natural logarithms of the percentages of remaining at each time point was plotted against the incubation time, and the slope (−k) was calculated by linear regression. Then, Clint (μL/min/mg) and half-life (T½, min.) of the compounds were calculated following the equation: Inherent clearance rate (Clint)=(k*Volume of incubation solution)/Mass of liver microsomes.
# [4] = Metabolic stability in mouse liver microsomes; format: in vitro ADME, CD-1 mice; conditions: for half-life: CD-1, 0.5 mg protein/mL; for microsomal CLint: CD-1, read-out: CLint(mic)
# Excerpt: as §1
# [5] = biological target: T1, RORγt (Homo sapiens, UniProt P51449); experiment: In vitro luciferase reporter assay of RORγt inhibition (GAL4-RORγ-LBD in HEK293T); conditions: for Emax: HEK-293T, relative maximum inhibition rate relative to AZD-0284 at 10 μM; for IC50: IC50, RORγt luciferase reporter gene, HEK293T
# T1 sequence (P51449 269-508 limits assumed): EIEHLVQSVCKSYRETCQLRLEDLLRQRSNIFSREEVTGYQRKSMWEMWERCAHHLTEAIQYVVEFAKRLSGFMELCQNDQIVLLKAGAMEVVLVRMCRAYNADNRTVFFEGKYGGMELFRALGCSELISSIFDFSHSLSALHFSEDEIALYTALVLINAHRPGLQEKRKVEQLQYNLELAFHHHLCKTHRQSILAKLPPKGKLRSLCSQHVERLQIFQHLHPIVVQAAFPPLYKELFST
# Excerpt: The RORγ-LBD coding sequence was inserted into pBIND plasmid (Promega, E1581). The expression vector and a reporter vector (pGL4.35 carrying a stably integrated luciferase reporter gene driven by GAL4 promoter) were co-expressed in HEK293T host cells. When the inhibitor binds to the corresponding chimeric receptor, the chimeric receptor binds to the GAL4 binding site on the reporter gene carrier and inhibits reporter gene expression. The inhibition activity of the compounds on RORγ was determined according to the intensity of the chemiluminescence signal.
# 2.2 Cell Transfection • a) Balancing the Trans-IT transfection reagent at room temperature; • b) Adding 20 μl of the transfection reagent and 600 μl of Opti-MEM™ medium without contacting the tube wall, mixing uniformly through blowing and pipetting by a pipette gun, and allowing to stand at room temperature for 5 minutes; • c) Adding 10 μg of the plasmid to the transfection reagent (see Step 2.2.b), and allowing to stand at room temperature for 20 minutes; • Plasmids: 5 μg of pBIND-RORγ and 5 μg of pGL4.35 plasmids were respectively added therein; • d) Adding the mixed DNA transfection reagent to a 100 mm cell culture dish (see Step 2.1); • e) Placing the dish in an incubator at 37° C. and 5% CO2 for 5 h. […] Calculation of % Inhibition
# [formula] • RLUcmpd: fluorescence value of test compounds • RLUpositive: average value of positive control • RLUvehicle: average value of negative control
# IC50s of the compounds were calculated by fitting the % Inhibition and the logarithm values of the compound concentration using Graphad 8.0.
IC50 [1],"AUC(0-t) ([2]; IV, 1 mg/kg)","Cmax ([2]; IV, 1 mg/kg)","half-life ([2]; IV, 1 mg/kg)","Vd ([2]; IV, 1 mg/kg)",bioavailability [2],"AUC(0-t) ([2]; Po, 5 mg/kg)","Cmax ([2]; Po, 5 mg/kg)","half-life ([2]; Po, 5 mg/kg)","CL_obs ([2]; IV, 1 mg/kg)",half-life [3],Remaining % (T = 60 min) [3],microsomal CLint [3],half-life [4],microsomal CLint [4],Remaining % (T = 60 min) [4],Emax [5],IC50 [5],Structure (SMILES),Emax [1]
51.4 nM,1850 ng·h/mL,1390 ng/mL,5.09 h,2.71 L/kg,84%,9640 ng·h/mL,816 ng/mL,3.91 h,7.12 mL/min/kg,> 2.42 h,94.2%,< 9.6 µL/min/mg,> 2.42 h,< 9.6 µL/min/mg,94.5%,102%,19.1 nM,"CCS(=O)(=O)c1ccc2c(c1)CCN(C(C)=O)C2C(=O)Nc1ccc(C(O)(C(F)(F)F)C(F)(F)F)cc1 (racemic) [Example 1, 2-Acetyl-6-(ethylsulfonyl)-N-(4-(1,1,1,3,3,3-hexafluoro-2-hydroxypropan-2-yl)phenyl)-1,2,3,4-tetrahydroisoquinoline-1-carboxamide]",79%
21.1 nM,4870 ng·h/mL,703 ng/mL,39.9 h,4.02 L/kg,83.5%,20300 ng·h/mL,1080 ng/mL,37.6 h,1.23 mL/min/kg,1.26 h,61.0%,18.4 µL/min/mg,> 2.42 h,< 9.6 µL/min/mg,79.7%,99.6%,12.4 nM,"CCS(=O)(=O)c1ccc2c(c1)CCN(C(C)=O)C2C(=O)Nc1ccc(C(F)(C(F)(F)F)C(F)(F)F)cc1 (racemic) [Example 7, 2-Acetyl-6-(ethylsulfonyl)-N-(4-(perfluoropropan-2-yl)phenyl)-1,2,3,4-tetrahydroisoquinoline-1-carboxamide]",72%
22.7 nM,1300 ng·h/mL,2310 ng/mL,1.78 h,1.06 L/kg,82.1%,5330 ng·h/mL,553 ng/mL,3.31 h,12.8 mL/min/kg,> 2.42 h,82.2%,< 9.6 µL/min/mg,> 2.42 h,< 9.6 µL/min/mg,102.3%,100%,8 nM,"CCS(=O)(=O)c1ccc2c(c1)CCN(C(C)=O)C2C(=O)Nc1ccc(C(O)(C(F)(F)F)C(F)(F)F)cc1 (single isomer, unassigned) [Example 2, (R)-2-acetyl-6-(ethylsulfonyl)-N-(4-(1,1,1,3,3,3-hexafluoro-2-hydroxypropan-2-yl)phenyl)-1,2,3,4-tetrahydroisoquinoline-1-carboxamide or (S)-2-acetyl-6-(ethylsulfonyl)-N-(4-(1,1,1,3,3,3-hexafluoro-2-hydroxypropan-2-yl)phenyl)-1,2,3,4-tetrahydroisoquinoline-1-carboxamide]",78.3%
–,–,–,–,–,–,–,–,–,–,> 2.42 h,70.2%,< 9.6 µL/min/mg,1.54 h,14.9 µL/min/mg,59.4%,99.9%,113 nM,"CCS(=O)(=O)c1cc2c(s1)C(C(=O)Nc1ccc(C(O)(C(F)(F)F)C(F)(F)F)cc1)N(C(C)=O)CC2 (centres unmarked) [Example 6, 6-Acetyl-2-(ethylsulfonyl)-N-(4-(1,1,1,3,3,3-hexafluoro-2-hydroxypropan-2-yl)phenyl)-4,5,6,7-tetrahydrothieno[2,3-c]pyridine-7-carboxamide]",–
